Activity calls are given as the source filed them.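 Rule for the calls: active = compounds giving half or more protection of infected cells from virus-caused growth loss, again on retest; inactive = the rest.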 Where a SMILES comes first, the peptide text is derived from it. [ ]: non-standard residue; d: D form. The star is where a group is joined. Phe(4-NO2) = N[CH](Cc1ccc([N+](=O)[O-])cc1)C(=O)O; Boc = CC(C)(C)OC(=O)*; OtBu = CC(C)(C)O*

The test system of the assay is CEM cells HIV-1 protection, formazan growth assay. As to the kind of experiment: NCI AIDS Antiviral Assay. Particulars: for IC50: measured here: growth of uninfected CEM cells. The gist of the method:
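Five concentrations of each compound were applied to infected and uninfected human CEM cells. Protection from HIV-1 was judged from growth measured with a soluble formazan assay.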

Usually EC50 stands for the concentration at which the effect is half-maximal. Broadly, the IC50 is the midpoint of a concentration-inhibition curve. Low values mean greater potency in that assay, high ones weaker potency in that assay. In the case of `c1ccc2c(-c3csc(-c4c[nH]c5ccccc45)n3)c[nH]c2c1`, the EC50 was more than 200 µM and the half-maximal inhibitory concentration (IC50) is 56.2 µM.

As for `C[n+]1c(-c2ccc(/C=N\NC(=O)c3cncc(C(=O)N/N=C/c4ccc(-c5cn6ccccc6[n+]5C)cc4)c3)cc2)cn2ccccc21`, the EC50 was more than 7.41 µM and the IC50 is more than 7.41 µM.

For the molecule `O=C(OCC1OC2OC(c3ccccc3)(n3ccc4c([N+](=O)[O-])ccnc43)OC2C1OC(=O)c1ccccc1)c1ccccc1` (configuration not stated), the EC50 was more than 200 µM and the 50% inhibitory concentration (IC50) came to 145 µM.

On to `Cc1cc(N(CCCl)CCCl)ccc1N=Nc1ccccc1`, for which the EC50 was more than 200 µM and the IC50 worked out at 19.5 µM.

`N#CC1=C(N)Oc2cc(O)cc(O)c2C1c1ccccc1` (configuration not stated): the EC50 was more than 200 µM and the half-maximal inhibitory concentration (IC50) was more than 100 µM.

`COC(=O)C(C)(C)N=CN(C)C`: the EC50 was more than 1450 µM and the IC50 was more than 1450 µM.

Regarding `NC(=O)c1cn(C2OC(CO)C(O)C2O)c2ncnc(N)c12` (configuration not stated), the EC50 was more than 0.2 µM and the IC50 stood at 0.00562 µM.

On to `Cc1ccc(/C=C2\NC(=S)N(CN3CCCCC3)C2=O)cc1`, for which the EC50 is more than 200 µM and the IC50 came to 29.5 µM.

`COC(=O)c1ccc(CO/N=C(\c2ccccc2)c2ccccn2)cc1`: the EC50 is more than 162 µM and the IC50 came to 57.5 µM.

Turning to `CC(=O)NC(CCC(=O)OC(C)(C)C)C(=O)NC(CCC(=O)OC(C)(C)C)C(=O)NC(Cc1ccc([N+](=O)[O-])cc1)C(=O)NC(CCCCNC(=O)OC(C)(C)C)C(=O)NC(CCCCNC(=O)OC(C)(C)C)C(=O)NCC(=O)O` (configuration not stated) (Ac-E(OtBu)E(OtBu)[Phe(4-NO2)]K(Boc)K(Boc)G-OH; configuration not given here), the EC50 is more than 200 µM and the IC50 is more than 200 µM.

Turning to `CC(=O)/C(=C\n1c(=S)[nH]c2ccccc21)C(=O)Nc1ccccc1`, the EC50 is more than 200 µM and the IC50 was more than 200 µM.

For `O=S1[C@H](c2ccccc2)c2c(-c3ccccc3)sc(-c3ccccc3)c2[C@@H]1c1ccccc1` (some centres not stated), the outcome was inactive.

`O=C(Cc1nc2ccccc2s1)C(=O)Nc1cccc(C(F)(F)F)c1`: the outcome was inactive.

On to `COc1cc2c3c(c1OC)C(=O)C=C3N(S(=O)(=O)c1ccc(C)cc1)CC2`, for which the result was inactive.

For the molecule `CC(=O)O/N=C/c1cc2c(cc1Br)OCO2`, the EC50 was more than 18.2 µM and the IC50 was more than 18.2 µM.

In the case of `COc1cc2c3c(c1)nc(C)n3C(=O)C(c1ccccc1)S2` (configuration not stated), the result was inactive.

For `COC(=O)N/N=C(\C)C(CN(C)C)C(c1ccccc1)c1c(O)c2ccccc2oc1=O` (configuration not stated), the EC50 was more than 28.8 µM and the IC50 was more than 28.8 µM.

Consider `COc1cc(O)c(C(=O)c2ccccc2)cc1S(=O)(=O)O`, for which the EC50 is more than 776 µM and the IC50 is more than 776 µM.

Take `O=S(Cc1ccccc1)/C(=C/NC(=S)Nc1cc(Cl)ccc1Cl)c1ccccc1` (configuration not stated): the EC50 was more than 200 µM and the 50% inhibitory concentration (IC50) was more than 200 µM.

As to `c1cc2sc1CSCCSCCSC2`, the EC50 is more than 38 µM and the concentration for half-maximal inhibition (IC50) was more than 38 µM.

Regarding `COc1cccc(OC)c1NC(=O)C(=O)Nn1c(NNC(=O)c2ccncc2)nc2ccccc2c1=O`, the EC50 is more than 501 µM and the IC50 is more than 501 µM.

As for `Cc1ccc(S(=O)(=O)/N=C(\N)N(C)N=O)cc1`, the EC50 was more than 200 µM and the IC50 stood at 63.1 µM.

In the case of `C=CC(CCC(C)O)[Si](C)(C)C` (configuration not stated), the EC50 was more than 977 µM and the IC50 is more than 977 µM.

Regarding `CCOC(=O)c1ccc(N2CCN(c3c(C)nc(N)nc3N)CC2)cc1`, the EC50 is more than 100 µM and the IC50 was determined as 0.0316 µM.

Take `COc1cccc(-c2cc(C(=O)Nc3ccc(Cl)cc3)nc(N)n2)c1`: the EC50 is more than 72.4 µM and the IC50 came to 52.5 µM.

Regarding `CCn1ncc(N=O)c1N`, the EC50 was more than 200 µM and the IC50 was more than 200 µM.

For `Nc1ccc(N=Nc2ccc(-c3ccc(N=Nc4c(S(=O)(=O)O)cc5cc(S(=O)(=O)O)c(N=Nc6ccc([N+](=O)[O-])cc6)c(N)c5c4O)cc3)cc2)c2cc(S(=O)(=O)O)ccc12`, the EC50 was more than 19.5 µM and the IC50 is more than 19.5 µM.

Take `COc1ccc2[nH]c(C[P+](c3ccccc3)(c3ccccc3)c3ccccc3)cc2c1`: the EC50 was more than 200 µM and the IC50 was determined as 12 µM.

Consider `Cc1cccc(N=Nc2ccc(O)c(CN(C)C)c2)c1`, for which the EC50 was more than 200 µM and the IC50 came out at 34.7 µM.

In the case of `O=C(O)c1c2c(nc3ccccc13)-c1ccccc1C1(CCCC1)C2`, the EC50 was more than 468 µM and the IC50 amounted to 170 µM.

Regarding `CNc1c2cccc(C)c2nc2c(C(=O)NCCN(C)C)cccc12`, the EC50 is more than 0.2 µM and the IC50 turned out to be 0.0191 µM.

For the molecule `O=C1c2cscc2C(=O)c2sccc21`, the EC50 is more than 200 µM and the IC50 is 23.4 µM.

On to `O=C(COc1ccccc1Cl)N1N=C(c2ccccc2)CC1(O)c1ccccc1` (configuration not stated), for which the EC50 is more than 24.5 µM and the IC50 was more than 24.5 µM.

For `CC1C(N2CCCCC2)N(C(=O)c2ccccc2)SC12c1ccccc1-c1ccccc12` (configuration not stated), the EC50 is more than 42.7 µM and the IC50 was more than 42.7 µM.

Turning to `Cc1ccc(C)c(N2C(=O)C(=O)c3c(C)ccc(C)c32)c1`, the EC50 was more than 200 µM and the IC50 is 33.1 µM.

Take `C[C@H]1OCN2C(=O)c3ccccc3SC(=O)[C@H]12`: the EC50 is more than 200 µM and the IC50 was more than 200 µM.

For the molecule `CC1(C)C2C=CC1(C)C1(CC2)OCCO1` (configuration not stated), the EC50 was more than 200 µM and the IC50 is more than 200 µM.

Consider `CC(NC(=O)OCc1ccccc1)NC(=O)OC(C)(C)C` (configuration not stated), for which the EC50 is more than 200 µM and the IC50 was found to be 102 µM.

Take `O=S(=O)(O)c1ccc2cc(N=Nc3cc(S(=O)(=O)O)c4cccnc4c3O)ccc2c1`: the 50% effective concentration (EC50) is 24 µM and the IC50 is more than 100 µM.

In the case of `O=c1[nH]c(=O)n(C2CC(O)C(CO)O2)cc1OC/C=C/Cc1ccccc1` (configuration not stated), the EC50 is more than 200 µM and the 50% inhibitory concentration (IC50) is more than 200 µM.

With `COC(=O)NC(Cc1ccccc1)NC(=O)OC(C)(C)C` (configuration not stated), the EC50 is more than 200 µM and the IC50 was more than 200 µM.

Consider `[CH3][Sn]([CH3])([S]CCS(=O)(=O)O)[S]CCS(=O)(=O)O`, for which the EC50 is more than 200 µM and the IC50 amounted to 95.5 µM.

With `CCN(CC)CC(O)CNc1c2ccc([N+](=O)[O-])cc2nc2cc(OC)c(OC)cc12` (configuration not stated), the result was inactive.

For `Fc1ccc(C2SCc3nc4ccccc4n32)cc1` (configuration not stated), the outcome was inactive.

For the molecule `CC1(C)C(=NN=C(N)N)C(C)(C)C1=NN=C(N)N`, the EC50 is more than 50.1 µM and the IC50 is more than 50.1 µM.

Take `Nn1c(Cc2ccc(Cl)cc2)n[nH]c1=O`: the EC50 was more than 200 µM and the IC50 is more than 200 µM.

On to `CO[C@@H]1C=C[C@@]23c4cc5c(cc4CN(C[C@@H]2O)[C@H]3C1)OCO5`, for which the EC50 is more than 603 µM and the IC50 stood at 1.1 µM.

With `Cc1ccc(C2(c3ccc(C)cc3)SC(=C(C#N)C#N)c3ccccc32)cc1`, the EC50 was more than 200 µM and the IC50 was more than 200 µM.

Consider `O=c1oc2ccccc2cc1-n1nnc2cc([N+](=O)[O-])ccc21`, for which the EC50 is more than 8.91 µM and the IC50 is more than 8.91 µM.

As to `Cc1nc(N)nc2c1CCC(=O)N2`, the EC50 is more than 56.2 µM and the IC50 was more than 56.2 µM.

Regarding `COc1c(Br)cc(C(=O)c2cc(Br)c(OC)c(C(=O)O)c2)cc1C(=O)O`, the EC50 was more than 1480 µM and the IC50 was more than 1480 µM.

As for `CC1=NNC(=O)C1C1CC(c2c[nH]c3ccccc23)=NN(c2ccccc2)C1=O` (configuration not stated), the EC50 was more than 200 µM and the IC50 was 33.9 µM.

Consider `O=C(c1ccco1)N(Cc1ccco1)C(=S)Nc1ccccc1`, for which the EC50 was more than 200 µM and the IC50 was determined as 12 µM.

On to `CC(=O)Nc1cc2cc(NS(=O)(=O)c3cc(C(F)(F)F)cc(C(F)(F)F)c3)ccc2oc1=O`, for which the EC50 was more than 27.5 µM and the half-inhibitory concentration (IC50) is more than 27.5 µM.

As to `NC(N)=NS(=O)(=O)c1ccc(NC(=O)c2ccc3nc4ccccc4c(N)c3c2)cc1`, the EC50 was 102 µM and the IC50 is more than 200 µM.

`O=C(CP(c1ccccc1)c1ccccc1)c1cccc(C(=O)CP(c2ccccc2)c2ccccc2)c1`: the EC50 was more than 200 µM and the concentration for half-maximal inhibition (IC50) amounted to 33.1 µM.

In the case of `c1cnn(CN(Cn2cccn2)Cn2cccn2)c1`, the outcome was inactive.

As for `C=C(C)[C@@H]1CCC2=C[C@@H](OC2=O)[C@@H](C(=C)C)C2=CC(C(=O)O)=C(C1)O2`, the EC50 is more than 200 µM and the IC50 was 91.2 µM.

For `COc1ccc(/C(=N\NC(=S)NN)C(c2ccc(OC)cc2)C2C(=O)Oc3ccccc32)cc1` (configuration not stated), the EC50 was more than 75.9 µM and the IC50 is more than 75.9 µM.

For the molecule `CC12CCC([C@H](Nc3cc(C(F)(F)F)cc(C(F)(F)F)c3)C1=O)C2(C)C` (some centres not stated), the EC50 was more than 20 µM and the IC50 was more than 20 µM.

Turning to `Cn1cc(NC(=O)c2cc(N)nn2C)cc1C(=O)Nc1ccc2cc(S(=O)(=O)O)cc(S(=O)(=O)O)c2c1`, the EC50 is more than 200 µM and the IC50 was more than 200 µM.

For `O=c1[nH]c2cc(Cl)ccc2nc1/C(=N\Nc1ccccc1)C(O)c1ccc(Cl)c(Cl)c1` (configuration not stated), the EC50 was more than 219 µM and the IC50 was 18.2 µM.

For `CCOc1c(Cc2ccccc2)c(=O)nc2c(-c3ccccc3)cncn12`, the EC50 is more than 200 µM and the IC50 was determined as 42.7 µM.

With `S=C(N1CCN(c2ccc(Cl)c(Cl)c2)CC1)N1CCN(c2ccc(Cl)c(Cl)c2)CC1`, the EC50 is more than 200 µM and the IC50 was 10 µM.

As to `CCOc1ccc(/C=C/C(=O)c2sc(NNC(C)=O)nc2C)cc1`, the EC50 was more than 20.9 µM and the IC50 was more than 20.9 µM.

As for `CCSC(=O)n1nc(Cl)c2cc([N+](=O)[O-])ccc21`, the EC50 is more than 200 µM and the IC50 was more than 200 µM.

Consider `O=C(O)/C=C\C(=O)NNC(=O)/C=C\C(=O)O`, for which the EC50 was more than 1100 µM and the IC50 is more than 1100 µM.

In the case of `NC(N)=N/N=C\CC(O)CO` (configuration not stated), the EC50 was more than 200 µM and the IC50 was more than 200 µM.

Consider `COc1cc(C2C3=C(COC3=O)Oc3cc4c(cc32)OCO4)cc(OC)c1OC(C)=O` (configuration not stated), for which the EC50 was more than 0.2 µM and the IC50 worked out at 0.0324 µM.

Turning to `CCCNC(=O)N(CC(C)(C)C)S(=O)(=O)c1ccc(Cl)cc1`, the outcome was inactive.

(Values after PubChem BioAssay AID179 (DTP/NCI, 2004).)
